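Briefly, cells in 96-well plates were exposed to five compound concentrations for 48 h, and endpoints were estimated by linear interpolation. Here, GI50 denotes the concentration required for 50% inhibition of growth. The concentration for full growth arrest is given as TGI.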

Among the test systems are SK-MEL-5 melanoma; SK-MEL-2 melanoma; BT-549 breast; NCI-H226 lung; UACC-257 melanoma; NCI-H23 lung; HL-60(TB) leukemia; RXF 393 renal; SN12C renal; PC-3 prostate.
Common to all, as to experiment: NCI-60 cell line screen, 48 h

For `Cc1ccc(-c2cc3nc(-c4ccccc4)nc(C(Cl)Cl)n3n2)cc1`, the GI50 in the test with SK-MEL-5 melanoma is over 50 µM; in the test on SK-MEL-2 melanoma it was 2.51 µM; in the test with BT-549 breast, 15.2 µM; with NCI-H226 lung, over 50 µM; in the test with UACC-257 melanoma it was 1.53 µM; in the test with NCI-H23 lung, 1.95 µM. The GI50 in the test on HL-60(TB) leukemia was 1.39 µM; in the test on RXF 393 renal it was 0.845 µM; in the test on SN12C renal, 2.92 µM; in the test on PC-3 prostate, 0.781 µM. For the same compound, the TGI was over 50 µM in the test on SK-MEL-5 melanoma; 19.7 µM in the test with SK-MEL-2 melanoma; over 50 µM with BT-549 breast; over 50 µM in the test with NCI-H226 lung; 6.68 µM with UACC-257 melanoma; over 50 µM in the test on NCI-H23 lung. Besides, the TGI in the test with HL-60(TB) leukemia is 4.06 µM; in the test on RXF 393 renal it was 1.88 µM; in the test with SN12C renal it was over 50 µM; in the test with PC-3 prostate, 2.05 µM.
As for `O=C1/C(=C\c2cccs2)Oc2ccccc21`, the TGI in the test on SK-MEL-5 melanoma, in the test on SK-MEL-2 melanoma, with BT-549 breast, in the test with NCI-H226 lung, in the test on UACC-257 melanoma and in the test with NCI-H23 lung was over 100 µM in each case. For the same compound, the TGI with HL-60(TB) leukemia, with RXF 393 renal, with SN12C renal and in the test with PC-3 prostate was over 100 µM in each case.
For the compound `CCC(=O)N1C/C(=C/c2ccc(OC)cc2)C(=O)/C(=C/c2ccc(OC)cc2)C1`, the GI50 in the test on SK-MEL-5 melanoma was 1.62 µM; with SK-MEL-2 melanoma, 2.53 µM; in the test with BT-549 breast it was 1.88 µM; in the test with NCI-H226 lung, 22.3 µM; in the test on UACC-257 melanoma, 2.21 µM; in the test on NCI-H23 lung, 2.26 µM. Besides, the GI50 was 2.98 µM with HL-60(TB) leukemia, 1.72 µM in the test on RXF 393 renal, 1.78 µM with SN12C renal and 2.17 µM in the test with PC-3 prostate. The TGI in the test on SK-MEL-5 melanoma is 3.04 µM; in the test with SK-MEL-2 melanoma it was 5.38 µM; with BT-549 breast it was 3.5 µM; with NCI-H226 lung it was over 100 µM; with UACC-257 melanoma, 5.88 µM; with NCI-H23 lung it was 5.39 µM. Moreover, the TGI with HL-60(TB) leukemia worked out at 53.1 µM; in the test with RXF 393 renal, 3.17 µM; in the test on SN12C renal, 3.51 µM; in the test with PC-3 prostate, 7.94 µM.
For `Cc1ccc2c(c1)sc(-c1ccc(N(C)C)cc1)[n+]2C`, the GI50 in the test on SK-MEL-5 melanoma was 0.39 µM; in the test with SK-MEL-2 melanoma, 4.25 µM; with BT-549 breast, 0.464 µM; in the test on NCI-H226 lung, 3.26 µM; in the test with UACC-257 melanoma, 0.657 µM; with NCI-H23 lung, 0.987 µM. Besides, the GI50 in the test with HL-60(TB) leukemia was 0.273 µM; in the test on RXF 393 renal, 9.16 µM; in the test on SN12C renal, 2.71 µM; in the test with PC-3 prostate, 0.677 µM. Moreover, the TGI in the test with SK-MEL-5 melanoma was 1.8 µM; in the test on SK-MEL-2 melanoma, over 38 µM; with BT-549 breast, 8.08 µM; with NCI-H226 lung, over 100 µM; in the test on UACC-257 melanoma it was 19.9 µM; with NCI-H23 lung, over 48.8 µM. For the same compound, the TGI in the test with HL-60(TB) leukemia was 10.5 µM; in the test on RXF 393 renal, over 47.4 µM; with SN12C renal, 42.8 µM; in the test with PC-3 prostate, 9.23 µM.
In the case of `ClCCn1cnc2c(SCc3ccccc3)ncnc21`, the GI50 with SK-MEL-5 melanoma is 0.79 µM; with SK-MEL-2 melanoma, 2.24 µM; in the test with BT-549 breast it was 0.685 µM; in the test with NCI-H226 lung, 31 µM; in the test with UACC-257 melanoma, 14.1 µM; with NCI-H23 lung, 29.2 µM. In addition, the GI50 with HL-60(TB) leukemia was 4.68 µM; in the test on RXF 393 renal it was 11.4 µM; in the test on SN12C renal, 8.54 µM; with PC-3 prostate, 0.356 µM. The TGI in the test with SK-MEL-5 melanoma, with SK-MEL-2 melanoma, in the test on BT-549 breast, in the test on NCI-H226 lung, with UACC-257 melanoma and in the test with NCI-H23 lung was over 100 µM each time. Also, the TGI with HL-60(TB) leukemia was 68.3 µM; in the test on RXF 393 renal, 63.5 µM; with SN12C renal it was over 100 µM; in the test with PC-3 prostate it was over 100 µM.
Regarding `CC[C@@]1(OC(=O)CCC(=O)O)C(=O)OCc2c1cc1n(c2=O)Cc2cc3ccccc3nc2-1`, the TGI is 0.373 µM with SK-MEL-5 melanoma; 4.96 µM in the test with SK-MEL-2 melanoma; over 28.3 µM in the test on BT-549 breast; 3.13 µM in the test on NCI-H226 lung; 2.09 µM with UACC-257 melanoma; 0.838 µM in the test with NCI-H23 lung. Moreover, the TGI in the test on HL-60(TB) leukemia was 0.449 µM; with RXF 393 renal it was 1.53 µM; with SN12C renal it was 4.22 µM; with PC-3 prostate, over 100 µM.
As for `OCC1OC(N2C=C(c3nc4ccccc4s3)C3C=CC=CC32)C(O)C1O` (centres undefined), the GI50 was 6.1 µM with SK-MEL-5 melanoma; 29.7 µM in the test with SK-MEL-2 melanoma; 9.55 µM in the test with BT-549 breast; 8.81 µM in the test on NCI-H226 lung; 9.17 µM in the test with UACC-257 melanoma; 8.89 µM with NCI-H23 lung. Also, the GI50 in the test with HL-60(TB) leukemia is 21 µM; in the test on RXF 393 renal, 10.6 µM; in the test with SN12C renal, 11.1 µM; in the test with PC-3 prostate it was 8.59 µM. The TGI with SK-MEL-5 melanoma is 14.5 µM; in the test with SK-MEL-2 melanoma, over 50 µM; with BT-549 breast it was 27.5 µM; with NCI-H226 lung, 25.5 µM; in the test on UACC-257 melanoma it was 22.1 µM; in the test with NCI-H23 lung, 28.7 µM. The TGI is over 50 µM with HL-60(TB) leukemia, 25.9 µM in the test on RXF 393 renal, 34.3 µM in the test with SN12C renal and 42.4 µM in the test with PC-3 prostate.
Turning to `CC1(C)C(=O)/C(=C\c2ccco2)C[C@]2(C)[C@H]3CC=C4[C@@H]5C[C@](C)(C(=O)O)CC[C@]5(C)CC[C@@]4(C)[C@]3(C)CC[C@@H]12`, the GI50 is 10.5 µM in the test with SK-MEL-5 melanoma; 15.1 µM with SK-MEL-2 melanoma; 9.46 µM in the test on BT-549 breast; 9.92 µM in the test with NCI-H226 lung; 12.5 µM in the test with UACC-257 melanoma; 8.89 µM with NCI-H23 lung. For the same compound, the GI50 in the test on HL-60(TB) leukemia was 6.78 µM; in the test with RXF 393 renal, 10.7 µM; with SN12C renal it was 7.64 µM; with PC-3 prostate, 3.93 µM. The TGI in the test on SK-MEL-5 melanoma amounted to 22.5 µM; in the test with SK-MEL-2 melanoma, 36.8 µM; in the test with BT-549 breast it was 25.4 µM; in the test with NCI-H226 lung, 37 µM; in the test with UACC-257 melanoma, 38.9 µM; in the test with NCI-H23 lung, 25.4 µM. The TGI in the test on HL-60(TB) leukemia came to 27.2 µM; with RXF 393 renal, 22.7 µM; with SN12C renal, 26 µM; in the test with PC-3 prostate, 23.1 µM.
In the case of `Nc1ccc2c(c1)[O][Sn]([c]1ccccc1)([c]1ccccc1)[O]C2=O`, the GI50 was 11.6 µM with SK-MEL-5 melanoma; 6.19 µM with SK-MEL-2 melanoma; 1.98 µM in the test with BT-549 breast; 9.13 µM in the test on NCI-H226 lung; 8.14 µM in the test on UACC-257 melanoma; 2.76 µM in the test with NCI-H23 lung. Also, the GI50 with HL-60(TB) leukemia is 2.64 µM; in the test on RXF 393 renal it was 2.06 µM; in the test with SN12C renal, 7.24 µM; in the test with PC-3 prostate it was 12.4 µM. Further, the TGI in the test on SK-MEL-5 melanoma worked out at 25 µM; in the test on SK-MEL-2 melanoma, 17.6 µM; with BT-549 breast, 6.4 µM; in the test on NCI-H226 lung, 16.7 µM; in the test with UACC-257 melanoma it was 20 µM; with NCI-H23 lung, 8.58 µM. Also, the TGI in the test with HL-60(TB) leukemia was 10.4 µM; in the test on RXF 393 renal it was 6.09 µM; with SN12C renal it was 20.4 µM; in the test with PC-3 prostate, 24.9 µM.
Consider `CCN(CC)CC(C)Nc1ccc(C)c2sc3ccccc3c(=O)c12` (centres undefined), for which the GI50 with SK-MEL-5 melanoma is 1.48 µM; in the test on SK-MEL-2 melanoma, 9.07 µM; with BT-549 breast, 7.14 µM; in the test with NCI-H226 lung, 4.21 µM; in the test on UACC-257 melanoma it was 2.07 µM; with NCI-H23 lung, 5.94 µM. The GI50 in the test with HL-60(TB) leukemia is 1.62 µM; in the test with SN12C renal it was 6.77 µM; with PC-3 prostate, 3.6 µM. Also, the TGI with SK-MEL-5 melanoma worked out at 2.85 µM; in the test with SK-MEL-2 melanoma, 25.5 µM; with BT-549 breast, 21 µM; with NCI-H226 lung, 18.8 µM; with UACC-257 melanoma, 4.82 µM; in the test on NCI-H23 lung it was 19.8 µM. Moreover, the TGI with HL-60(TB) leukemia was determined as 5.24 µM; with RXF 393 renal, 1.97 µM; in the test with SN12C renal, 21 µM; in the test with PC-3 prostate, 16.6 µM.

The record behind these values is PubChem BioAssay (NCI).
